According to PMC8317958, “Design, synthesis and biological evaluation of novel thiazole-naphthalene derivatives as potential anticancer agents and tubulin polymerisation inhibitors” (Journal of Enzyme Inhibition and Medicinal Chemistry, 2021):

Assays:
[1] = tested on: human breast cancer cell line (MCF-7); assay: Antiproliferative activity, CCK-8 assay, MCF-7; type: cell-based; conditions: CCK-8, 48 h, means of three experiments
Protocol: Cell culture and cytotoxicity assay […]
against MCF-7 human breast cancer cell line by using the CCK -8 assay with cisplatin, […]
cultured in RPMI-1640 medium containing 10% fetal bovine serum in a humidified 5% CO2 atmosphere at 37 °C. Cells were seeded into 96-well plates at a density of 1×10^5 cells/well and incubated for 24 h. After incubation, the cells were treated with vehicle control, reference drugs, or title compounds, and incubated at 37 °C for 48 h.
Then CCK-8 was added and incubated for another 4 h. The absorbance values of the solution at 450 nm were measured using microplate reader, and each experiment was performed at least in triplicate. Then the results were expressed as the IC50 values. […]

[2] = tested on: human lung adenocarcinoma cell line (A549); assay: Antiproliferative activity, CCK-8 assay, A549; type: cell-based; conditions: CCK-8, means of three experiments
[3] = tested on: normal human embryonic kidney cell line (HEK293); assay: Inhibitory activity against normal cell line HEK293; type: cell-based
purified tubulin protein = assay: In vitro tubulin polymerisation assay; type: biochemical; conditions: 37 °C, 20 min incubation
Protocol: 1.3. In vitro tubulin polymerization assay
The purified tubulin protein was mixed with different concentrations of compound 5b […]
PEM buffer (100 mM PIPES, 1 mM MgCl2, and 1 mM EGTA) with 1 mM GTP and 5% glycerol. Then the mixture was immediately monitored under 340 nm at 37 °C every 1 min for 20 min using the spectrophotometer. The plateau absorbance values were used for calculations. The IC50 value was defined as the concentration of the compound

MCF-7 cancer cells [4] = assay: Cell cycle analysis by flow cytometry; type: cell-based, human; conditions: 24 h; for G2 (G2/M) population: control 26.66%; for S population: control 33.42%; for G1 population: control 39.92%
Protocol: Based on the literature report, most tubulin destabilising agents can disrupt regulated cell cycle distribution and lead to cell cycle arrest at metaphase[23]^,[31]. Therefore, we evaluated the effect of the most promising compound 5b on the cell cycle of MCF-7 cancer cells using the flow cytometry analysis assay. In this study, MCF-7 cancer cells were incubated with different concentrations of 5b (0.3125, 0.625, and 1.25 μM) for 24 h. […]
MCF-7 cells were seeded in 6-well plates (3 × 10^5 cells/well) and incubated in the absence and presence of different concentrations of compound 5b (0.3125, 0.625, and 1.25 μM) for 24 h. Subsequently, the cells were harvested, washed with PBS, and fixed in 70% ice-cold ethanol at 4 °C overnight. After removed the ethanol in the next day, the cells were resuspended in the staining buffer and incubated with RNase and propidium iodide for 30 min. […]

MCF-7 cancer cells [5] = assay: Annexin V-FITC/PI apoptosis assay; type: cell-based, human; conditions: 24 h; for total numbers of early and late apoptotic cells: control 4.93%
Protocol: Considering that tubulin polymerisation inhibitors can induce cellular apoptosis, the Annexin V-FITC/PI assay was performed to detect whether compound 5b was able to induce cancer cell apoptosis. […]
MCF-7 cells were seeded in 6-well plates (3 × 10^5 cells/well) and incubated with different concentrations of compound 5b (0.3125, 0.625, and 1.25 μM) or vehicle for 24 h. Cells were harvested and incubated with 5 μL of Annexin-V/FITC in 300 μL binding buffer for 15 min. Then, PI solution (10 μL) was added to the medium and […]
incubated for 5 min. […]

tubulin = tested on: tubulin; set-up: method as in PMID 31724435; conditions: naphthalene-chalcone derivative of earlier work ref 23; read-out: Tubulin polymerisation IC50; cited from earlier work

## COc1ccc(-c2sc(N)nc2-c2ccc(OC)c3ccccc23)cc1 [5a]
[1]; Homo sapiens, MCF7
  IC50: 1.8 ± 0.07 µM
[2]; Homo sapiens, A549
  IC50: 2.72 ± 0.18 µM

## CCOc1ccc(-c2sc(N)nc2-c2ccc(OC)c3ccccc23)cc1 [5b]
[1]; Homo sapiens, MCF7
  IC50: 0.48 ± 0.03 µM
[2]; Homo sapiens, A549
  IC50: 0.97 ± 0.13 µM
[3]
  IC50: 16.4 ± 4.61 µM
Purified tubulin protein
  IC50: 3.3 µM
MCF-7 cancer cells [4]; 5b 0.3125 μM
  G2 (G2/M) population: 29.03%
  S population: 28.11%
  G1 population: 42.86%
MCF-7 cancer cells [4]; 5b 0.625 μM
  G2 (G2/M) population: 47.32%
  S population: 36.61%
  G1 population: 16.06%
MCF-7 cancer cells [4]; 5b 1.25 μM
  G2 (G2/M) population: 72.49%
  S population: 20.22%
  G1 population: 7.29%
MCF-7 cancer cells [5]; 5b 0.3125 μM
  Q1 quadrant: 0.25
  Q2 quadrant: 10.2
  Q3 quadrant: 5.58
  Q4 quadrant: 83.9
  total numbers of early and late apoptotic cells: 15.78%
MCF-7 cancer cells [5]; 5b 0.625 μM
  Q1 quadrant: 0.44
  Q2 quadrant: 14.8
  Q3 quadrant: 10.8
  Q4 quadrant: 74.0
  total numbers of early and late apoptotic cells: 25.6%
MCF-7 cancer cells [5]; 5b 1.25 μM
  Q1 quadrant: 0.55
  Q2 quadrant: 15.1
  Q3 quadrant: 12.6
  Q4 quadrant: 71.8
  total numbers of early and late apoptotic cells: 27.7%

## COc1cc(-c2sc(N)nc2-c2ccc(OC)c3ccccc23)c(Br)c(OC)c1OC [5c]
[1]; Homo sapiens, MCF7
  IC50: 31.1 ± 0.7 µM
[2]; Homo sapiens, A549
  IC50: > 50 µM

## COc1ccc(-c2sc(NC(C)=O)nc2-c2ccc(OC)c3ccccc23)cc1 [6a]
[1]; Homo sapiens, MCF7
  IC50: 2.16 ± 0.27 µM
[2]; Homo sapiens, A549
  IC50: 16.1 ± 0.83 µM

## CCC(=O)Nc1nc(-c2ccc(OC)c3ccccc23)c(-c2ccc(OC)cc2)s1 [6b]
[1]; Homo sapiens, MCF7
  IC50: 14.8 ± 0.45 µM
[2]; Homo sapiens, A549
  IC50: 40.32 ± 0.32 µM

## CCCC(=O)Nc1nc(-c2ccc(OC)c3ccccc23)c(-c2ccc(OC)cc2)s1 [6c]
[1]; Homo sapiens, MCF7
  IC50: 14.9 ± 0.34 µM
[2]; Homo sapiens, A549
  IC50: > 50 µM

## COc1ccc(-c2sc(NC(=O)C(Cl)(Cl)Cl)nc2-c2ccc(OC)c3ccccc23)cc1 [6d]
[1]; Homo sapiens, MCF7
  IC50: 1.03 ± 0.09 µM
[2]; Homo sapiens, A549
  IC50: 1.91 ± 0.08 µM
Purified tubulin protein
  IC50: 6.6 µM

## COc1ccc(-c2sc(NC(=O)C(C)C)nc2-c2ccc(OC)c3ccccc23)cc1 [6e]
[1]; Homo sapiens, MCF7
  IC50: 12.3 ± 0.54 µM
[2]; Homo sapiens, A549
  IC50: > 50 µM

## CCOc1ccc(-c2sc(NC(C)=O)nc2-c2ccc(OC)c3ccccc23)cc1 [6f]
[1]; Homo sapiens, MCF7
  IC50: 5.49 ± 0.84 µM
[2]; Homo sapiens, A549
  IC50: 7 ± 0.3 µM

## CCOc1ccc(-c2sc(NC(=O)CC)nc2-c2ccc(OC)c3ccccc23)cc1 [6g]
[1]; Homo sapiens, MCF7
  IC50: 9.61 ± 0.54 µM
[2]; Homo sapiens, A549
  IC50: 18.7 ± 0.89 µM

## CCCC(=O)Nc1nc(-c2ccc(OC)c3ccccc23)c(-c2ccc(OCC)cc2)s1 [6h]
[1]; Homo sapiens, MCF7
  IC50: 7.18 ± 0.78 µM
[2]; Homo sapiens, A549
  IC50: > 50 µM

## CCOc1ccc(-c2sc(NC(=O)C(C)C)nc2-c2ccc(OC)c3ccccc23)cc1 [6i]
[1]; Homo sapiens, MCF7
  IC50: 7.69 ± 0.34 µM
[2]; Homo sapiens, A549
  IC50: > 50 µM

## CCC(=O)Nc1nc(-c2ccc(OC)c3ccccc23)c(-c2cc(OC)c(OC)c(OC)c2Br)s1 [6j]
[1]; Homo sapiens, MCF7
  IC50: > 50 µM
[2]; Homo sapiens, A549
  IC50: > 50 µM

## COc1cc(-c2sc(NC(=O)C(C)C)nc2-c2ccc(OC)c3ccccc23)c(Br)c(OC)c1OC [6k]
[1]; Homo sapiens, MCF7
  IC50: > 50 µM
[2]; Homo sapiens, A549
  IC50: > 50 µM

## CCCC(=O)N(C(=O)CCC)c1nc(-c2ccc(OC)c3ccccc23)c(-c2cc(OC)c(OC)c(OC)c2Br)s1 [6m]
[1]; Homo sapiens, MCF7
  IC50: > 50 µM
[2]; Homo sapiens, A549
  IC50: > 50 µM

## CCC(=O)N(C(C)=O)c1nc(-c2ccc(OC)c3ccccc23)c(-c2cc(OC)c(OC)c(OC)c2Br)s1 [6n, N-acetyl-N-(5-(2-bromo-3,4,5-trimethoxyphenyl)-4-(4-methoxynaphthalen-1-yl)thiazol-2-yl)propionamide]
[1]; Homo sapiens, MCF7
  IC50: 13.5 ± 0.82 µM
[2]; Homo sapiens, A549
  IC50: 16.3 ± 0.89 µM

## COc1ccc(/C=C\c2cc(OC)c(OC)c(OC)c2)cc1O [CA-4, combretastatin A-4, reference compound]
[2]; Homo sapiens, A549
  IC50: 0.029 ± 0.004 µM

## N.N.[Cl][Pt][Cl] [Cisplatin, reference compound]
[1]
  IC50: 11.2 ± 0.75 µM
[2]
  IC50: 4.92 ± 0.56 µM

## COc1cc2nc(/C=N/c3cccnc3Nc3ccc(Cl)cc3)sc2c(OC)c1OC [IV]
tubulin
  IC50: 8.4 µM
